# Reference: publication PMC7230232, “Secondary Metabolites from the Culture of the Marine-derived Fungus Paradendryphiella salina PC 362H and Evaluation of the Anticancer Activity of Its Metabolite Hyalodendrin” (Marine Drugs, 2020)
# Several values for one entry are separate records, joined by “and”; a condition that tells them apart may be missing. Identical values can stand only once. Like-named read-outs stand apart in the source and are kept apart here.
# Legend:
# MCF7-Sh-WISP2 cells [1] = experiment: Human cell stress array and immunoblotting; format: cell-based
# Procedure: MCF7-Sh-WISP2 cells were treated for 48 h with 5.7 µM of 3 (corresponding to 3.8 × 10^−5 nmol of drug per cell), harvested and lysed for 30 min on ice with 0.4 mL of cell lysis buffer containing a cocktail of protease inhibitors. The lysates were centrifuged at 14,000 g for 5 min at 4 °C. Human cell stress proteins were detected using the Proteome Profiler human cell stress array kit (# ARY018, R&D systems) according to the manufacturer’s instructions. The chemiluminescent images of the slide were captured with the Chemidoc system (Biorad).
# (§1) MCF7-Sh-WISP2 cells were incubated for 72 h at 37 °C with 2.4 µM of 3 (corresponding to 3.8 × 10^−5 nmol of drug per cell). Cells were then washed twice with Phosphate-Buffer Saline (PBS) 1X and lysed for 30 min in RIPA buffer (150 mM NaCl, 1.0% IGEPAL® CA-630, 0.5% sodium deoxycholate, 0.1% SDS, 50 mM Tris, pH 8.0). Proteins (20 µg) were resolved on sodium dodecyl sulfate polyacrylamide gel (SDS/PAGE) (12%) and blotted onto nitrocellulose membranes (Bio-Rad). […] Antigens were detected using an enhanced chemiluminescence kit (Biorad) using the Chemidoc system (Biorad). Protein quantitation was calculated using Image Lab software developed by Bio-Rad.
# HT29 5FU = experiment: MTT cell viability assay, HT29 5FU; format: cell-based; settings: Homo sapiens, HT-29; colon; 5-fluorouracil resistant
# Procedure: (§2) Cellular viability was determined by the MTT (methylthiazolyldiphenyl-tetrazolium bromide) assay. Briefly, cells were exposed to the indicated concentrations of crude extracts or compounds 1–4 for five doubling times and then incubated for 3 h at 37 °C with MTT. Formazan crystals were then dissolved in DMSO and optical density measured at 570 nm in a microplate reader. The half-maximal inhibitory concentration (IC50) was determined. Values given for crude extracts are averages of at least two experiments done in duplicate. IC50 values calculated for the four isolated compounds and the commercially available 4-hydroxy-tamoxifen (Sigma-Aldrich) are averages of at least three experiments done in duplicate.
# [2] = molecular target: T1, thioredoxin system (Trr1+Trx1) (Saccharomyces cerevisiae, UniProt P22217); experiment: In vitro reduction by the reconstituted thioredoxin system (NADPH consumption); format: biochemical; settings: versus ACN control
# T1 construct: made in house
# Procedure: Thioredoxin 1 (Trx1) and NADPH-dependent thioredoxin reductase (Trr1) from Saccharomyces cerevisiae were cloned and produced as described previously. Thioredoxin activity was measured spectrophotometrically (Uvikon XS; Secomam) in 1 mL cuvette by following NADPH consumption at 340 nm over 2 min. The reaction was performed in 100 µM NADPH, 246 nM of Trr1 in 30 mM Tris-HCl buffer (pH 7.9) and in the presence or not of 65 nM of Trx1. The reaction was initiated by adding 10 µL of 50 mM of 3 in acetonitrile or 10 µL of acetonitrile (ACN, Control experiment). For each condition, NADPH consumption experiments were performed in triplicate and results were represented as the mean ± SD. The significance of the results was evaluated by Student’s t-test.
# MCF7-Sh-WISP2 cells [3] = experiment: MTT cell viability assay, MCF7-Sh-WISP2; format: cell-based, human; settings: for IC50: Homo sapiens
# Procedure: as §2
# MCF7 cells = experiment: MTT cell viability assay, MCF7; format: cell-based, human; settings: Homo sapiens
# Procedure: as §2
# HeLa = experiment: MTT cell viability assay, HeLa; format: cell-based; settings: Homo sapiens, cervix
# Procedure: as §2
# MCF7-Sh-WISP2 cells [4] = experiment: Intracellular signaling array and immunoblotting; format: cell-based, human
# Procedure: MCF7-Sh-WISP2 cells were treated for 48 h with 2.8 µM of 3 (corresponding to 3.8 × 10^−5 nmol of drug per cell), harvested and lysed on ice for 5 min with 0.5 mL of cell lysis buffer containing a cocktail of protease inhibitors. The lysates were centrifuged at 14,000 g for 1 min at 4 °C. Intracellular signaling molecules were detected using a PathScan® intracellular signaling array kit (# 7323, Cell Signaling Technology) according to the manufacturer’s procedure. The chemiluminescent images of the slide were captured with the Chemidoc system (Biorad).
# as §1
# T1 sequence (P22217 whole entry): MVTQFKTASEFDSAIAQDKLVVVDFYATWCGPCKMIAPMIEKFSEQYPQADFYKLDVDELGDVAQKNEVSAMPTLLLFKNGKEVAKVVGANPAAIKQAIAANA
compound,measurement,setting,value
"CN1C(=O)[C@@]2(Cc3ccccc3)SS[C@]1(CO)C(=O)N2C [Compound 3, (3R, 6R) Hyalodendrin]",phosphorylation of p53 on serine 46,"MCF7-Sh-WISP2 cells [1]; 5.7 µM for 48 h (array), 2.4 µM for 72 h (Western blot)",decreased phosphorylation
same,BAX expression,"MCF7-Sh-WISP2 cells [1]; Western blot, 2.4 µM for 72 h",decreased expression
same,expression levels of HSP60 and HSP70 proteins,"MCF7-Sh-WISP2 cells [1]; array, 5.7 µM for 48 h",marked decrease
same,p21 protein expression levels,"MCF7-Sh-WISP2 cells [1]; array, 5.7 µM for 48 h",no increase
same,IC50,HT29 5FU,147 ± 10.2 nM
same,NADPH consumption increase,[2],~14 folds
same,IC50,MCF7-Sh-WISP2 cells [3]; read-out: IC50 MC7-Sh-WISP2,142 ± 3 nM
same,IC50,MCF7-Sh-WISP2 cells [3]; read-out: IC50 MCF7-Sh-WISP2,0.046 µg/mL and 140 nM
same,IC50 for MCF7-Sh-WISP2 expressed as amount of 3 per cell,MCF7-Sh-WISP2 cells [3]; corresponds to IC50 of 140 nM in the viability assay,3.8 × 10^−5 nmol of 3 per cell
same,IC50,"MCF7 cells; MCF7, read-out: IC50 MCF7, breast, epithelial",216 ± 6 nM
same,IC50,"MCF7 cells; MCF7, read-out: IC50 MCF7, pure compounds, MTT",0.07 µg/mL and 220 nM
same,IC50,HeLa,69 ± 9.9 nM
same,phosphorylation of p53 on serine 15,"MCF7-Sh-WISP2 cells [4]; 2.8 µM for 48 h (array), 2.4 µM for 72 h (Western blot)",increased phosphorylation
same,PRAS40 protein expression levels,"MCF7-Sh-WISP2 cells [4]; Western blot, 2.4 µM for 72 h",general decrease
same,cleavage of PARP or caspase-3,MCF7-Sh-WISP2 cells [4]; signaling array,no cleavage
